According to US5756545A, “Biphenysulfonamide matrix metal alloproteinase inhibitors” (priority 1997, dated 1998):

Key:
Format in all cases: biochemical
full-length collagenase = biological target: T1, full-length collagenase (Homo sapiens, UniProt P03956); experiment: full-length collagenase hydrolysis of thiopeptolide substrate (FLC); details: full-length enzyme
T1 construct: full-length collagenase hydrolysis of thiopeptolide substrate (FLC)
T1 sequence (P03956 100-469): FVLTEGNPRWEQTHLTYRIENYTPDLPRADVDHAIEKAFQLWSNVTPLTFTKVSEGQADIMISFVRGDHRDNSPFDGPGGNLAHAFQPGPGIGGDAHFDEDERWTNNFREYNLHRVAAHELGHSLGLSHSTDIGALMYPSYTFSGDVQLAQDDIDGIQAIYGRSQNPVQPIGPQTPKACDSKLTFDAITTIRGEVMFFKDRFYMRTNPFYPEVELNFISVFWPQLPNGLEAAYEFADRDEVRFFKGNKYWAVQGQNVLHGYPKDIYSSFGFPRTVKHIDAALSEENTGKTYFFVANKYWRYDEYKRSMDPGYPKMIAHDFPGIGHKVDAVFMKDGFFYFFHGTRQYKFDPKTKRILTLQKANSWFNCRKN
From the text: The compounds were additionally evaluated for their ability to inhibit full-length collagenase hydrolysis of thiopeptolide substrate (FLC) and full-length gelatinase B (FLGB) hydrolysis of thiopeptolide.

[1] = biological target: T2, stromelysin catalytic domain (Homo sapiens, UniProt P08254); experiment: stromelysin catalytic domain hydrolysis of thiopeptolide, SCD (T); details: thiopeptolide substrate
T2 construct: stromelysin catalytic domain hydrolysis of thiopeptolide
T2 sequence (P08254 100-272 limits assumed): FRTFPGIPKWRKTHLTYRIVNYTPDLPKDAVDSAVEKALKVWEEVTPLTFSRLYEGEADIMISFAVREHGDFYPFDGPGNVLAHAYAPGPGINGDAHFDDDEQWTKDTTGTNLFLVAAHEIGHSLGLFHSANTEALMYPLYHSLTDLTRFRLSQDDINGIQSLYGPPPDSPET
From the text: (§1) Table I below presents inhibitory activity for representative invention compounds of Formula I. In the table, GA CD (T) refers to gelatinase A-catalytic domain hydrolysis of thiopeptolide substrate; GA CD (Gel) refers to gelatinase A-catalytic domain hydrolysis of gelatin substrate; SCD (T) refers to stromelysin catalytic domain hydrolysis of thiopeptolide.

[2] = biological target: gelatinase A-catalytic domain; experiment: gelatinase A catalytic domain hydrolysis of gelatin, GA CD (Gel); details: gelatin substrate
From the text: as §1

[3] = biological target: gelatinase A-catalytic domain; experiment: gelatinase A catalytic domain hydrolysis of thiopeptolide, GA CD (T); details: thiopeptolide substrate
From the text: as §1

Compound | IC50 (full-length collagenase) | IC50 [2] | IC50 [3] | IC50 [1]
CC(C)[C@H](NS(=O)(=O)c1ccc(-c2ccc(Cl)cc2)cc1)C(=O)O [Example 2, (S)-2-(4'-Chloro-biphenyl-4-sulfonylamino)-3-methyl-butyric Acid] | 7.5 µM | – | – | –
CC(C)[C@H](NS(=O)(=O)c1ccc(-c2ccc(C(F)(F)F)cc2)cc1)C(=O)O [Example 19, (S)-3-Methyl-2-(4'-trifluoromethyl-biphenyl-4-sulfonylamino)-butyric Acid] | – | – | – | 14 nM
CC(C)[C@H](NS(=O)(=O)c1ccc(-c2ccc(C#N)cc2)cc1)C(=O)O [Example 5, (S)-2-(4'-Cyano-biphenyl-4-sulfonylamino)-3-methyl-butyric Acid] | – | 157 nM | 32 nM | –
CC(C)[C@H](NS(=O)(=O)c1ccc(-c2cccc(Br)c2)cc1)C(=O)O [Example 7, (S)-2-(3'-Bromo-biphenyl-4-sulfonylamino)-3-methyl-butyric Acid] | – | 1300 nM | 731 nM | –
CC(C)[C@H](NS(=O)(=O)c1ccc(-c2ccc(F)cc2)cc1)C(=O)O [Example 16, (S)-2-(4'-Fluoro-biphenyl-4-sulfonylamino)-3-methyl-butyric Acid] | – | 94 nM | 51 nM | –

Continued by falling IC50 [2], values first:

IC50 (full-length collagenase) | IC50 [2] | IC50 [3] | Compound | IC50 [1]
– | 79 nM | 21 nM | O=C(O)CNS(=O)(=O)c1ccc(-c2ccc(Br)cc2)cc1 [Example 12, (4'-Bromo-biphenyl-4-sulfonylamino)-acetic Acid] | –
– | 45 nM | 26 nM | O=C(O)[C@H](Cc1ccccc1)NS(=O)(=O)c1ccc(-c2ccc(Br)cc2)cc1 [Example 10, (S)-2-(4'-Bromo-biphenyl-4-sulfonylamino)-3-phenyl-propionic Acid] | –
– | 29 nM | 15 nM | CC(C)C[C@H](NS(=O)(=O)c1ccc(-c2ccc(Br)cc2)cc1)C(=O)O [Example 14, (S)-2-(4'-Bromo-biphenyl-4-sulfonylamino)-4-methyl-pentanoic Acid] | –
– | 22 nM | 19 nM | C[C@H](NS(=O)(=O)c1ccc(-c2ccc(Br)cc2)cc1)C(=O)O [Example 13, (S)-2-(4'-Bromo-biphenyl-4-sulfonylamino)-propionic Acid] | –
– | 19 nM | 6 nM | CC(C)[C@H](NS(=O)(=O)c1ccc(-c2ccc(Br)cc2F)cc1)C(=O)O [Example 8, (S)-2-(4'-Bromo-2'-fluoro-biphenyl-4-sulfonylamino)-3-methyl-butyric Acid] | –
– | 14 nM | 2 nM | COc1ccc(-c2ccc(S(=O)(=O)N[C@H](C(=O)O)C(C)C)cc2)cc1 [Example 15, (S)-2-(4'-Methoxy-biphenyl-4-sulfonylamino)-3-methyl-butyric Acid] | –
